Laboratory results published in PubChem BioAssay AID1963961 (Molecular Pharmacology Branch, DTP, NCI, 2024).

Test system: K98450-129-R-PDC multicell spheroids, viability
Assay: Anticancer human tumor K98450-129-R-PDC patient-derived colon adenocarcinoma cell line growth inhibition [PI3K]
Details: for IC50: curve of first compound; for viability, T/C: stronger effect = lower value; active means viability on the fitted dose curve at most 10% of control; inactive means the rest
Outline: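 We assembled tumor spheroids that included a stromal compartment of HUVEC and MSCs, then exposed them to targeted agents alone and together with PI3K pathway inhibitors. Concentration series descended by half-log from clinically achievable Cmax levels. Viability served as the endpoint.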

[1] = second compound 0.00316 µM, first compound 0.0316 µM
[2] = second compound 0.00316 µM, first compound 0.1 µM
[3] = second compound 0.00316 µM, first compound 0.316 µM
[4] = second compound 0.00316 µM, first compound 1 µM
[5] = second compound 0.00316 µM, first compound 3.16 µM
[6] = second compound 0.00316 µM, first compound 10 µM
[7] = second compound 0.01 µM, first compound 0.0316 µM
[8] = second compound 0.01 µM, first compound 0.1 µM
[9] = second compound 0.01 µM, first compound 0.316 µM
[10] = second compound 0.01 µM, first compound 1 µM
[11] = second compound 0.01 µM, first compound 3.16 µM
[12] = second compound 0.01 µM, first compound 10 µM
[13] = second compound 0.0316 µM, first compound 0.0316 µM
[14] = second compound 0.0316 µM, first compound 0.1 µM
[15] = second compound 0.0316 µM, first compound 0.316 µM
[16] = second compound 0.0316 µM, first compound 1 µM
[17] = second compound 0.0316 µM, first compound 3.16 µM
[18] = second compound 0.0316 µM, first compound 10 µM
[19] = second compound 0.1 µM, first compound 0.0316 µM
[20] = second compound 0.1 µM, first compound 0.1 µM
[21] = second compound 0.1 µM, first compound 0.316 µM
[22] = second compound 0.1 µM, first compound 1 µM
[23] = second compound 0.1 µM, first compound 3.16 µM
[24] = second compound 0.1 µM, first compound 10 µM
[25] = second compound 0.316 µM, first compound 0.0316 µM
[26] = second compound 0.316 µM, first compound 0.1 µM
[27] = second compound 0.316 µM, first compound 0.316 µM
[28] = second compound 0.316 µM, first compound 1 µM
[29] = second compound 0.316 µM, first compound 3.16 µM
[30] = second compound 0.316 µM, first compound 10 µM
[31] = second compound 1 µM, first compound 0.0316 µM
[32] = second compound 1 µM, first compound 0.1 µM
[33] = second compound 1 µM, first compound 0.316 µM
[34] = second compound 1 µM, first compound 1 µM
[35] = second compound 1 µM, first compound 3.16 µM
[36] = second compound 1 µM, first compound 10 µM
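Further: spheroids exposed to agents for seven days before read-out.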

CC(Cn1ccc(-c2ccc(C#N)c(Cl)c2)n1)NC(=O)c1cc(C(C)O)[nH]n1 (stereo unspecified) + COc1c(OCCCN2CCOCC2)ccc2c3n(c(=NC(=O)c4cnc(N)nc4)nc12)CCN3
> 10 µM: IC50 (second compound 0.00316 µM) | IC50 (second compound 0.01 µM) | IC50 (second compound 0.0316 µM) | IC50 (second compound 0.1 µM) | IC50 (second compound 0.316 µM)
4.9 µM: IC50 (second compound 1 µM)
inactive: viability, T/C [1] 102% | viability, T/C [2] 97.7% | viability, T/C [3] 117% | viability, T/C [4] 104% | viability, T/C [5] 107% | viability, T/C [6] 111% | viability, T/C [7] 116% | viability, T/C [8] 95% | viability, T/C [9] 105% | viability, T/C [10] 102% | viability, T/C [11] 90.7% | viability, T/C [12] 89.5% | viability, T/C [13] 88.9% | viability, T/C [14] 92.9% | viability, T/C [15] 80.5% | viability, T/C [16] 89.6% | viability, T/C [17] 93.1% | viability, T/C [18] 75.8% | viability, T/C [19] 74.9% | viability, T/C [20] 79% | viability, T/C [21] 82.1% | viability, T/C [22] 95.2% | viability, T/C [23] 90% | viability, T/C [24] 71.1% | viability, T/C [25] 47.2% | viability, T/C [26] 59.4% | viability, T/C [27] 64.2% | viability, T/C [28] 62.1% | viability, T/C [29] 72.1% | viability, T/C [30] 43.6% | viability, T/C [31] 48.5% | viability, T/C [32] 59.8% | viability, T/C [33] 63.2% | viability, T/C [34] 52.1% | viability, T/C [35] 54.2% | viability, T/C [36] 44%

CCCS(=O)(=O)Nc1ccc(F)c(C(=O)c2c[nH]c3ncc(-c4ccc(Cl)cc4)cc23)c1F + CC(Nc1ccc2c(c1)OCCn1cc(N3C(=O)OCC3C(F)F)nc1-2)C(N)=O
inactive: viability, T/C [1] 113% | viability, T/C [2] 104% | viability, T/C [3] 112% | viability, T/C [4] 111% | viability, T/C [5] 135% | viability, T/C [6] 14.1% | viability, T/C [7] 117% | viability, T/C [8] 110% | viability, T/C [9] 114% | viability, T/C [10] 105% | viability, T/C [11] 148% | viability, T/C [13] 97% | viability, T/C [14] 105% | viability, T/C [15] 100% | viability, T/C [16] 105% | viability, T/C [17] 136% | viability, T/C [18] 10.4% | viability, T/C [19] 96.5% | viability, T/C [20] 102% | viability, T/C [21] 97.9% | viability, T/C [22] 101% | viability, T/C [23] 130% | viability, T/C [24] 10.7% | viability, T/C [25] 90.6% | viability, T/C [26] 93.7% | viability, T/C [27] 98.5% | viability, T/C [28] 98.4% | viability, T/C [29] 113% | viability, T/C [30] 10.5% | viability, T/C [31] 88.3% | viability, T/C [32] 88.8% | viability, T/C [33] 91.4% | viability, T/C [34] 97% | viability, T/C [35] 91.2% | viability, T/C [36] 12.5%
6.2 µM: IC50 (second compound 0.1 µM)
6.63 µM: IC50 (second compound 0.00316 µM)
6.29 µM: IC50 (second compound 0.0316 µM)
5.78 µM: IC50 (second compound 1 µM)
5.98 µM: IC50 (second compound 0.316 µM)
active: viability, T/C [12] 8.38%
6.48 µM: IC50 (second compound 0.01 µM)

CNC(=O)c1ccc(N2C(=S)N(c3ccc(C#N)c(C(F)(F)F)c3)C(=O)C2(C)C)cc1F + COc1c(OCCCN2CCOCC2)ccc2c3n(c(=NC(=O)c4cnc(N)nc4)nc12)CCN3
> 10 µM: IC50 (second compound 0.00316 µM) | IC50 (second compound 0.01 µM) | IC50 (second compound 0.0316 µM) | IC50 (second compound 0.1 µM) | IC50 (second compound 0.316 µM) | IC50 (second compound 1 µM)
inactive: viability, T/C [1] 108% | viability, T/C [2] 102% | viability, T/C [3] 88.7% | viability, T/C [4] 97.1% | viability, T/C [5] 108% | viability, T/C [6] 101% | viability, T/C [7] 98.6% | viability, T/C [8] 107% | viability, T/C [9] 80.1% | viability, T/C [10] 77.8% | viability, T/C [11] 100% | viability, T/C [12] 98.8% | viability, T/C [13] 96.4% | viability, T/C [14] 96.9% | viability, T/C [15] 84.4% | viability, T/C [16] 81.5% | viability, T/C [17] 95.7% | viability, T/C [18] 68.1% | viability, T/C [19] 67.1% | viability, T/C [20] 83.2% | viability, T/C [21] 72.6% | viability, T/C [22] 77% | viability, T/C [23] 78.7% | viability, T/C [24] 70.1% | viability, T/C [25] 67.4% | viability, T/C [26] 65.6% | viability, T/C [27] 73.5% | viability, T/C [28] 58.5% | viability, T/C [29] 79.1% | viability, T/C [30] 39.8% | viability, T/C [31] 43.6% | viability, T/C [32] 58.4% | viability, T/C [33] 54.2% | viability, T/C [34] 50.1% | viability, T/C [35] 57.2% | viability, T/C [36] 65.5%
